# Source: US9315815B2, “Method of high-throughput sorting of high expression cell and cells sorted therefrom” (Taipei Medical University, priority 2013, dated 2016)
# Key:
# furin protease [1] = biological target: T1, furin protease (Cricetulus griseus, UniProt A0A9J7CGZ7); test: FACS detection of PCD-GB-RAKR-mB7 on LEC1/PCD-GB cell membrane with furin inhibitor; format: cell-based, Chinese Hamster; conditions: LEC1/PCD-GB cells, furin inhibitor added, anti-myc antibody, FACS (FIG. 6B)
# T1 construct: rich furin protease in Golgi can effectively cleave furin cleavage site; endogenous in cells; host or cells: LEC1/PCD-GB (CHO Lec1) cells
# T1 sequence (A0A9J7CGZ7 27-794): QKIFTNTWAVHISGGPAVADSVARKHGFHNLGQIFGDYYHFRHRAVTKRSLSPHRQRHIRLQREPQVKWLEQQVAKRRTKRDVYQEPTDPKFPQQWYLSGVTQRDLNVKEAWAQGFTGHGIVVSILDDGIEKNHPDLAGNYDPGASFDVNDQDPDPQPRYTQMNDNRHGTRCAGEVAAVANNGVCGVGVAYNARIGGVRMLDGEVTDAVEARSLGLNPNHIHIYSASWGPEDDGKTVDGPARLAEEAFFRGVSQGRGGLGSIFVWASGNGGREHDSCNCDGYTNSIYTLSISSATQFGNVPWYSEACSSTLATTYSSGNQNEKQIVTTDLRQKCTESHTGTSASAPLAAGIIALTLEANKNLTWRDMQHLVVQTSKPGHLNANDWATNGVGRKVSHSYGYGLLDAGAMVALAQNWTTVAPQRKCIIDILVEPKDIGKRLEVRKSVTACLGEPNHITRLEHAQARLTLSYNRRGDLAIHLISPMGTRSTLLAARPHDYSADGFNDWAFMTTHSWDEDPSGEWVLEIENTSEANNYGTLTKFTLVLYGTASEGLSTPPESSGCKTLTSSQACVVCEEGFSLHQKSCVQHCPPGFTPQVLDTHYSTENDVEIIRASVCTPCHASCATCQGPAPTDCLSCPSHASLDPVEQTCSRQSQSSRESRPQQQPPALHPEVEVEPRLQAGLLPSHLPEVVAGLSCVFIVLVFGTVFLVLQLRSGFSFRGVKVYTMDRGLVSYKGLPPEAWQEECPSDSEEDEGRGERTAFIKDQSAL
# Text: (A) To detect the expression of PCD-GB recombinant protein in LEC1 and LEC1/PCD-GB cells, Western blot technique accompanied with mouse anti-myc antibody and goat anti-mouse IgG-HRP was used. (B) Furin inhibitor (Dec-RVKR-CMK) was used to inhibit the furin activity of LEC1 and LEC1/PCD-GB cells. Then, to detect the expression of PCD-GB-RAKR-mB7 on cell membrane, FACS technology accompanied with mouse anti-myc antibody and goat anti-mouse IgG-HRP was used. The filled region represents LEC1 cells as control group; solid line represents LEC1/PCD-GB cells without furin inhibitor; dashed line represents LEC1/PCD-GB cells with furin inhibitor. (C) The X axis represents the expression of PCD-GB-RAKR-mB7 on cell membrane (mean relative fluorescence intensity). The Y axis represents the production of PCD-GB stored in lysosomes. Each dot represents a single individual LEC1/PCD-GB cell.
# Example 2 exemplifies a perforin-granzyme fusion protein (PCD-GB) which is expressed in lysosome. […] The gene was transfected into mammalian cells (Chinese Hamster Ovary cells, LEC1). Under normal conditions, rich furin protease in Golgi can effectively cleave furin cleavage site ([…]) between PCD-GB and mB7 so that PCD-GB would be stored in lysosome. […]
# furin protease [2] = biological target: T2, furin protease (Homo sapiens, UniProt P09958); test: Secretion of anti-EGFR antibody by 293T/anti-EGFR cells with furin inhibitor; format: cell-based; conditions: furin inhibitor added vs absent (FIG. 2A)
# T2 construct: rich furin protease in Golgi can effectively cleave a furin cleavage site; endogenous in cells; host or cells: 293T/anti-EGFR (HEK-293 derived) cells
# T2 sequence (P09958 108-794): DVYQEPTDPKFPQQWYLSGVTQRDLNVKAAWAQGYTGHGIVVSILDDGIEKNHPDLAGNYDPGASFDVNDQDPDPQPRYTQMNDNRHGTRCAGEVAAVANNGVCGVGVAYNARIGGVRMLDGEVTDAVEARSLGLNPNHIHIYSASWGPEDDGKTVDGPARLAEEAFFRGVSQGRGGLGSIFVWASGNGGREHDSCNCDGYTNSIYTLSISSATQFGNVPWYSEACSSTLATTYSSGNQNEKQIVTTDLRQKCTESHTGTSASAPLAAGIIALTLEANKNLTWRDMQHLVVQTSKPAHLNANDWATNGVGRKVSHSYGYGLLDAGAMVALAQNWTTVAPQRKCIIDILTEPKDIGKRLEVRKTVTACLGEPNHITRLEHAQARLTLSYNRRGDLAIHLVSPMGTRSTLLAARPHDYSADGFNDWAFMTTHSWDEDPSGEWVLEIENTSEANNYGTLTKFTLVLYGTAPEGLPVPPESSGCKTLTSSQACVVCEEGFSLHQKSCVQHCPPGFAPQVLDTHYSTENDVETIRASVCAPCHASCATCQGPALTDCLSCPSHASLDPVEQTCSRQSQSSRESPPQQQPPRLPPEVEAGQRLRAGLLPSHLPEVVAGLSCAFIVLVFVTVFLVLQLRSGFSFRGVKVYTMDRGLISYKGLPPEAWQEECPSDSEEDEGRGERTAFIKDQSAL
# Text: (§1) (A) To detect the concentration of anti-EGFR antibody of 293T/anti-EGFR cell culture, Dec-RVKR-CMK was used as furin inhibitor. The Y axis represents concentration of the secreted anti-EGFR antibody, while the X axis represents cell groups. […] (B) To detect anti-EGFR Ab-RAKR-mB7 expression of 293T/anti-EGFR on cell membrane, FACS technology combined with FITC conjugated anti-human IgG antibody was used. The filled region represents 293T cells as control group; the solid line represents 293T/anti-EGFR cell without furin inhibitor; the dashed line represents 293T/anti-EGFR cell with furin inhibitor.
# Take a humanized anti-EGFR antibody, for example; we transfected an anti-EGFR Ab-RAKR-mB7 gene into a human embryonic kidney cell with a Lentivirus vector to construct a 293T/anti-EGFR cell line. In the absence of a furin inhibitor (Dec-RVKR-CMK), said 293T/anti-EGFR can continuously secrete anti-EGFR antibody into extracellular matrix (see FIG. 2A).
# furin protease [3] = biological target: T2, furin protease; test: FACS detection of anti-EGFR Ab-RAKR-mB7 on 293T/anti-EGFR cell membrane with furin inhibitor; format: cell-based; conditions: 293T/anti-EGFR cells, furin inhibitor added, FITC anti-human IgG, FACS (FIG. 2B)
# Text: as §1
# The gene was transfected into mammalian cells (human embryonic kidney cells, HEK-293). Under normal conditions, rich furin protease in Golgi can effectively cleave a furin cleavage site ([…]) between anti-EGFR antibody and mB7 to allow secretion of the anti-EGFR antibody into an extracellular matrix. When furin inhibitor (DEC-RVKR-CMK) was added, to inhibit the activity of the furin protease, the anti-EGFR Ab-RAKR-mB7 would not be cleaved by furin protease and would be stably anchored on the cell membrane surface. Then, FITC-conjugated anti-human antibody was used to label the anti-EGFR Ab-RAKR-mB7 on the cell membranes. By using FACS, the cells with high expression of anti-EGFR Ab-RAKR-mB7 on their cell membranes can be rapidly and high-throughput sorted. […]
substance,measurement,setting,value
Dec-RVKR-CMK,PCD-GB-RAKR-mB7 detected on cell membrane,furin protease [1],few PCD-GB-RAKR-mB7 would be detected on the LEC1/PCD-GB cell membrane
same,secretion of anti-EGFR antibody,furin protease [2],decreased secretion of anti-EGFR antibody
same,expression of anti-EGFR Ab-RAKR-mB7 on cell membrane,furin protease [3],expression of anti-EGFR Ab-RAKR-mB7 was on the cell membrane
